Experimental data published in US11000033B2, “Ketone or oxime compound, and herbicide” (NISSAN CHEMICAL CORPORATION, priority 2014, dated 2021).

Experiments:
Format in all cases: in vivo
[1] = tested on: rice plant; test: Test Example 5: effect on crop by foliage application, plastic box (symbol b); details: 320 g/ha, 3 weeks after application
Summary of the method: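 Box culture: sterile diluvial soil, seeds spot-sown, ~1.5 cm cover, raised under glass at 25–30° C.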

[2] = tested on: Stellaria media; test: Test Example 5: herbicidal effect by foliage application, plastic box (symbol P); details: 320 g/ha, 3 weeks after application
Summary of the method: (§1)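 Leaf-applied emulsion, water-diluted to a preset herbicide dose, on two-week-old seedlings raised in a 25° C. to 30° C. greenhouse; injury rated at 3 weeks using earlier criteria.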

[3] = tested on: Veronica persica; test: Test Example 4: herbicidal effect by soil treatment (symbol R); details: for R (Veronica persica) herbicidal effect grade / Herbicidal effect grade, R: Veronica persica: application herbicide amount 320 g/ha; for R: Veronica persica, herbicidal effect grade: 320 g/ha
Summary of the method: (§2)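 Seeds were sown in sterilized diluvial soil, covered with about 1.5 cm of soil, and the soil surface was sprayed with a water-diluted emulsion of the compound at a predetermined rate. Plants grew in a greenhouse at 25° C. to 30° C.; effects were scored visually 3 weeks after application.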

[4] = tested on: Chenopodium album; test: Test Example 5: herbicidal effect by foliage application, plastic box (symbol O); details: 320 g/ha, 3 weeks after application
Summary of the method: as §1

[5] = tested on: Chenopodium album; test: Test Example 4: herbicidal effect by soil treatment (symbol O); details: application herbicide amount 320 g/ha
Summary of the method: as §2

| SMILES | b: directly sowed rice plant, effect on crop grade [1] | P: Stellaria media, herbicidal effect grade [2] | O: Chenopodium album, herbicidal effect grade [4] | also measured |
| --- | --- | --- | --- | --- |
| COCCON=C(C)CC1CC(O)=C(c2c(C)cc(C)cc2C)C1=O (stereo not shown) [1-041] | 5 (Herbicidal ratio of 90% or more (almost completely withered)) | 3 (Herbicidal ratio of 40% or higher and lower than 70%) | 3 (Herbicidal ratio of 40% or higher and lower than 70%) | R (Veronica persica) herbicidal effect grade [3]: 3 (Herbicidal ratio of 40% or higher and lower than 70%) |
| CON=C(CC1CC(O)=C(c2c(C)cc(Br)cc2C)C1=O)C(C)C (stereo not shown) [9-001] | 3 (Herbicidal ratio of 40% or higher and lower than 70%) | 0 (Herbicidal ratio of 5% or lower (almost no effect)) | 0 (Herbicidal ratio of 5% or lower (almost no effect)) | Herbicidal effect grade, R: Veronica persica [3]: 0 (Herbicidal ratio of 5% or lower (almost no effect)) |
| CSCCON=C(C)CC1CC(O)=C(c2c(C)cc(C)cc2C)C1=O (stereo not shown) [1-029] | 5 (Herbicidal ratio of 90% or more (almost completely withered)) | 3 (Herbicidal ratio of 40% or higher and lower than 70%) | 3 (Herbicidal ratio of 40% or higher and lower than 70%) |  |
| CON=C(C)CC1CC(OC(=O)COc2ccc(I)cc2)=C(c2c(C)cc(C)cc2C)C1=O (stereo not shown) [1-082] |  |  |  | b: directly sowed rice plant, effect on crop (criteria 0-5) [1]: 5 (Herbicidal ratio of 90% or more (almost completely withered)); P: Stellaria media, herbicidal effect (criteria 0-5) [2]: 0 (Herbicidal ratio of 5% or lower (almost no effect)); R: Veronica persica, herbicidal effect grade [3]: 0 (Herbicidal ratio of 5% or lower (almost no effect)); O: Chenopodium album, herbicidal effect (criteria 0-5) [4]: 1 (Herbicidal ratio of 5% or higher and lower than 20%) |
| CON=C(C)CC1CC(OC(=O)C(C)(C)Oc2ccccc2Cl)=C(c2c(C)cc(C)cc2C)C1=O (stereo not shown) [1-064] | 5 (Herbicidal ratio of 90% or more (almost completely withered)) | 1 (Herbicidal ratio of 5% or higher and lower than 20%) | 0 (Herbicidal ratio of 5% or lower (almost no effect)) | R (Veronica persica) herbicidal effect grade [3]: 0 (Herbicidal ratio of 5% or lower (almost no effect)) |
| CON=CC(C)(C)C1CC(O)=C(c2c(C)cc(C)cc2C)C1=O (stereo not shown) [1-030] | 5 (Herbicidal ratio of 90% or more (almost completely withered)) | 0 (Herbicidal ratio of 5% or lower (almost no effect)) | 0 (Herbicidal ratio of 5% or lower (almost no effect)) |  |
| CON=C(C)CC1CC(OC(=O)C(C)(C)Oc2cccc(Cl)c2)=C(c2c(C)cc(C)cc2C)C1=O (stereo not shown) [1-065] | 5 (Herbicidal ratio of 90% or more (almost completely withered)) | 0 (Herbicidal ratio of 5% or lower (almost no effect)) | 2 (Herbicidal ratio of 20% or higher and lower than 40%) | R (Veronica persica) herbicidal effect grade [3]: 0 (Herbicidal ratio of 5% or lower (almost no effect)) |
| CON=C(C)CC1CC(OC(=O)COc2ccc(OC)cc2)=C(c2c(C)cc(C)cc2C)C1=O (stereo not shown) [1-069] | 5 (Herbicidal ratio of 90% or more (almost completely withered)) | 3 (Herbicidal ratio of 40% or higher and lower than 70%) | 2 (Herbicidal ratio of 20% or higher and lower than 40%) | R (Veronica persica) herbicidal effect grade [3]: 0 (Herbicidal ratio of 5% or lower (almost no effect)) |
| CON=C(C)C(C)C1CC(O)=C(c2c(C)cc(C)cc2C)C1=O (stereo not shown) [1-032] | 5 (Herbicidal ratio of 90% or more (almost completely withered)) | 4 (Herbicidal ratio of 70% or higher and lower than 90%) | 3 (Herbicidal ratio of 40% or higher and lower than 70%) |  |
| CON=C(C)CC1CC(OC(=O)C2(C)CC2(Cl)Cl)=C(c2c(C)cc(C)cc2C)C1=O (stereo not shown) [1-036] | 5 (Herbicidal ratio of 90% or more (almost completely withered)) |  | 2 (Herbicidal ratio of 20% or higher and lower than 40%) |  |
| CON=C(CC1CC(O)=C(c2c(C)cc(C)cc2C)C1=O)C1CCCC1 (stereo not shown) [1-078] |  |  |  | b: directly sowed rice plant, effect on crop (criteria 0-5) [1]: 5 (Herbicidal ratio of 90% or more (almost completely withered)); P: Stellaria media, herbicidal effect (criteria 0-5) [2]: 0 (Herbicidal ratio of 5% or lower (almost no effect)); R: Veronica persica, herbicidal effect grade [3]: 0 (Herbicidal ratio of 5% or lower (almost no effect)) |
| CON=C(CC1CC(O)=C(c2c(C)cc(C#C[Si](C)(C)C)cc2C)C1=O)C(C)C (stereo not shown) [9-005] | 4 (Herbicidal ratio of 70% or higher and lower than 90%) | 0 (Herbicidal ratio of 5% or lower (almost no effect)) | 0 (Herbicidal ratio of 5% or lower (almost no effect)) | Herbicidal effect grade, R: Veronica persica [3]: 0 (Herbicidal ratio of 5% or lower (almost no effect)) |
| CON=C(C)CC1CC(OC(=O)C(C)(C)F)=C(c2c(C)cc(C)cc2C)C1=O (stereo not shown) [1-039] | 5 (Herbicidal ratio of 90% or more (almost completely withered)) | 3 (Herbicidal ratio of 40% or higher and lower than 70%) |  |  |
| CON=C(CC1CC(OC(=O)COc2ccccc2)=C(c2c(C)cc(C)cc2C)C1=O)C1CC1 (stereo not shown) [1-063] | 5 (Herbicidal ratio of 90% or more (almost completely withered)) | 0 (Herbicidal ratio of 5% or lower (almost no effect)) | 0 (Herbicidal ratio of 5% or lower (almost no effect)) | R (Veronica persica) herbicidal effect grade [3]: 0 (Herbicidal ratio of 5% or lower (almost no effect)) |
| CON=C(CC1CC(O)=C(c2c(C)cc(C)cc2C)C1=O)c1ccccn1 (stereo not shown) [1-045] | 5 (Herbicidal ratio of 90% or more (almost completely withered)) | 0 (Herbicidal ratio of 5% or lower (almost no effect)) | 0 (Herbicidal ratio of 5% or lower (almost no effect)) |  |
| CON=C(C)CC1CC(OC(=O)COc2ccc(Cl)cc2)=C(c2c(C)cc(C)cc2C)C1=O (stereo not shown) [1-044] | 5 (Herbicidal ratio of 90% or more (almost completely withered)) | 0 (Herbicidal ratio of 5% or lower (almost no effect)) |  |  |
| CON=C(C)CC1CC(OC(=O)COCC(F)(F)F)=C(c2c(C)cc(C)cc2C)C1=O (stereo not shown) [1-092] |  |  |  | b: directly sowed rice plant, effect on crop (criteria 0-5) [1]: 5 (Herbicidal ratio of 90% or more (almost completely withered)); P: Stellaria media, herbicidal effect (criteria 0-5) [2]: 0 (Herbicidal ratio of 5% or lower (almost no effect)); R: Veronica persica, herbicidal effect grade [3]: 0 (Herbicidal ratio of 5% or lower (almost no effect)); O: Chenopodium album, herbicidal effect (criteria 0-5) [4]: 0 (Herbicidal ratio of 5% or lower (almost no effect)) |
| CON=C(C)CC1CC(OC(=O)COc2ccc(Cl)cc2Cl)=C(c2c(C)cc(C)cc2C)C1=O (stereo not shown) [1-075] |  |  |  | b: directly sowed rice plant, effect on crop (criteria 0-5) [1]: 5 (Herbicidal ratio of 90% or more (almost completely withered)); P: Stellaria media, herbicidal effect (criteria 0-5) [2]: 1 (Herbicidal ratio of 5% or higher and lower than 20%); O (Chenopodium album) herbicidal effect grade [5]: 0 (Herbicidal ratio of 5% or lower (almost no effect)) |
| CC(CC1CC(O)=C(c2c(C)cc(C)cc2C)C1=O)=NOCC=CCl (stereo not shown) [1-056] | 5 (Herbicidal ratio of 90% or more (almost completely withered)) | 0 (Herbicidal ratio of 5% or lower (almost no effect)) | 1 (Herbicidal ratio of 5% or higher and lower than 20%) | R (Veronica persica) herbicidal effect grade [3]: 0 (Herbicidal ratio of 5% or lower (almost no effect)) |
| CON=C(C)CC1CC(OC(=O)COc2ccc(C(C)=O)cc2)=C(c2c(C)cc(C)cc2C)C1=O (stereo not shown) [1-080] |  |  |  | b: directly sowed rice plant, effect on crop (criteria 0-5) [1]: 5 (Herbicidal ratio of 90% or more (almost completely withered)); P: Stellaria media, herbicidal effect (criteria 0-5) [2]: 0 (Herbicidal ratio of 5% or lower (almost no effect)); R: Veronica persica, herbicidal effect grade [3]: 0 (Herbicidal ratio of 5% or lower (almost no effect)); O: Chenopodium album, herbicidal effect (criteria 0-5) [4]: 3 (Herbicidal ratio of 40% or higher and lower than 70%) |
| COCCOC1=C(c2c(C)cc(C)cc2C)C(=O)C(CC(C)=NOC)C1 (stereo not shown) [1-037] | 0 (Herbicidal ratio of 5% or lower (almost no effect)) |  | 0 (Herbicidal ratio of 5% or lower (almost no effect)) | O (Chenopodium album) herbicidal effect grade [5]: 0 (Herbicidal ratio of 5% or lower (almost no effect)) |
| CON=C(C)CC1CC(OC(=O)COc2ccc(F)cc2)=C(c2c(C)cc(C)cc2C)C1=O (stereo not shown) [1-073] |  |  |  | b: directly sowed rice plant, effect on crop (criteria 0-5) [1]: 5 (Herbicidal ratio of 90% or more (almost completely withered)); P: Stellaria media, herbicidal effect (criteria 0-5) [2]: 2 (Herbicidal ratio of 20% or higher and lower than 40%) |
